Measurements as given in PMC3726612, “Amiodarone Inhibits Apamin-Sensitive Potassium Currents” (PLoS ONE, 2013).

Columns and labels:
Type in all cases: cell-based
[1] = target: T1, human small conductance Ca^2+-activated K^+ channel, subfamily N, member 2 (SK2) (Homo sapiens, UniProt Q9H2S1); experiment: whole-cell patch clamp, HEK-293 cells transiently expressing SK2
T1 construct: gene KCNN2; transcript variant 1 (NM_021614.2)

[2] = target: T1, human small conductance Ca^2+-activated K^+ channel, subfamily N, member 2 (SK2); experiment: whole-cell patch clamp, HEK-293 cells expressing SK2; % inhibition at […]; conditions: HEK293
[3] = target: T1, human small conductance Ca^2+-activated K^+ channel, subfamily N, member 2 (SK2); experiment: as above; conditions: HEK293; read-out: % inhibition at 500 nM
[4] = target: T1, human small conductance Ca^2+-activated K^+ channel, subfamily N, member 2 (SK2); experiment: whole-cell patch clamp, HEK-293 cells transiently expressing SK2; % inhibition at […]; conditions: HEK293

T1 sequence (Q9H2S1 whole entry): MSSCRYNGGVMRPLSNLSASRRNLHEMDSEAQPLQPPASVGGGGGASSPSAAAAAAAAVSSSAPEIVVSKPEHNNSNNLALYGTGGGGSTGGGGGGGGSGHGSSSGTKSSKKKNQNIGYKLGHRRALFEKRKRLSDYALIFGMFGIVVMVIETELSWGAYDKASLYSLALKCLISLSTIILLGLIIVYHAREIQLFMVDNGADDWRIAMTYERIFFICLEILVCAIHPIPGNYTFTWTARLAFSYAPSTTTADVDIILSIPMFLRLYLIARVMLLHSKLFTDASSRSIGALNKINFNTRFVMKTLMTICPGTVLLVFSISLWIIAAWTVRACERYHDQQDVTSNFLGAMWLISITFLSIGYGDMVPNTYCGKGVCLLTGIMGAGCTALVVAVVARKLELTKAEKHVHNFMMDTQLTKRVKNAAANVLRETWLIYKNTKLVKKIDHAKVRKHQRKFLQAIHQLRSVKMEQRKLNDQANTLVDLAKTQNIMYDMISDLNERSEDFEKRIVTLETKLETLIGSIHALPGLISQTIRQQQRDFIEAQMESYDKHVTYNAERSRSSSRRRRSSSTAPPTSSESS

CCCCc1oc2ccccc2c1C(=O)c1cc(I)c(OCCN(CC)CC)c(I)c1 [amiodarone]
IC50 [1]: 2670 ± 250 nM

CCS(=O)(=O)N(C)[C@H]1c2cc(C#N)ccc2OC(C)(C)[C@@H]1O (racemic) [chromanol 293B]
inhibition at 100 µM [2]: 38.2 ± 15%

Cc1cccc(CCN2CCC(C(=O)c3ccc(NS(C)(=O)=O)cc3)CC2)n1 [E-4031]
inhibition at 0.5 µM [3]: 37.6 ± 14.9%

CCCCc1oc2ccccc2c1C(=O)c1cc(I)c(OCCNCC)c(I)c1 [DEA, desethylamiodarone]
inhibition at 20 µM [4]: 79%
